Values of other authors as cited in patent publication US6884793B2, “Combination preparation for contraception based on natural estrogens” (Jenapharm GmbH & Co. KG, priority 1995, dated 2005).

Tested on: human liver Cytochrome P-450

SMILES: C#C[C@]1(O)CC[C@H]2[C@@H]3CCc4cc(O)ccc4[C@H]3CC[C@@]21C [Ethinyl estradiol, ethinyl estradiol]
- effect on Cytochrome P-450 system: suicidal blockage of the Cytochrome P-450 system
